The record followed here is PubChem BioAssay (NCI).

Some test systems named below: DMS 114 small cell lung; LXFL 529 NSCLC; HOP-18 NSCLC; M19-MEL melanoma; KM20L2 colon; DMS 273 small cell lung; RXF-631 renal; XF 498 CNS; MDA-N.
Holding throughout (test): NCI anticancer screen, dose series, 48 h

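1) Cells in 96-well plates. 2) Compound, 48 h, 5 concentrations. 3) Linear interpolation between surrounding doses. 4) Unreached endpoint = highest concentration. Abbreviation: GI50, concentration required for 50% inhibition of growth. TGI marks complete inhibition of growth.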

Regarding `N=C(c1ccccc1)N(O)C1CCCCC1`, the TGI in the experiment on DMS 114 small cell lung, in the experiment with LXFL 529 NSCLC, in the experiment with HOP-18 NSCLC, with M19-MEL melanoma, with KM20L2 colon and with DMS 273 small cell lung was above 100 µM each time.

Turning to `CC(=O)OC1CCn2nnc(COC(=O)NC(C)C)c21` (stereo not given), the TGI in the experiment on DMS 114 small cell lung, with LXFL 529 NSCLC, in the experiment with HOP-18 NSCLC, in the experiment on KM20L2 colon, with RXF-631 renal and with XF 498 CNS was above 100 µM each time.

Consider `COc1cc(-c2[nH]ccc2Cl)oc1C1=C2N=C3C=C2C(C(C)C)C1CCCCCCCC3` (stereo not given), for which the TGI turned out to be 1.87 µM with DMS 114 small cell lung; 1.84 µM with LXFL 529 NSCLC; 2.08 µM with HOP-18 NSCLC; 1.75 µM with MDA-N; 1.59 µM in the experiment on M19-MEL melanoma; 1.48 µM with KM20L2 colon. The values for the TGI with DMS 273 small cell lung and with XF 498 CNS were 1.48 µM and 2.76 µM, respectively.

As to `Cc1c(C(=O)/C=C/c2ccc(Cl)cc2)[n+](=O)c2ccccc2n1[O-]`, the TGI is 15.1 µM with DMS 114 small cell lung; 22.5 µM with LXFL 529 NSCLC; 57.7 µM in the experiment with HOP-18 NSCLC; 30 µM in the experiment with M19-MEL melanoma; 21.4 µM with KM20L2 colon; 25.4 µM with DMS 273 small cell lung. In addition, the TGI in the experiment with RXF-631 renal is above 100 µM.

Take `Cc1ccccc1C(=O)Oc1ccc(Oc2ccccc2)cc1`: the TGI in the experiment on DMS 114 small cell lung, in the experiment on LXFL 529 NSCLC, in the experiment on HOP-18 NSCLC, in the experiment with M19-MEL melanoma, with KM20L2 colon and in the experiment on DMS 273 small cell lung was above 100 µM throughout. Moreover, the TGI with XF 498 CNS was above 100 µM.

In turn, `O=C1OC(c2ccc(O)c(-c3ccccc3)c2)(c2ccc(O)c(-c3ccccc3)c2)c2c(Cl)c(Cl)c(Cl)c(Cl)c21` returned a TGI in the experiment with MDA-N above 100 µM.

In the case of `N=C(N)SCCc1cn2ccccc2n1`, the TGI with DMS 114 small cell lung, in the experiment on HOP-18 NSCLC, in the experiment on M19-MEL melanoma, with DMS 273 small cell lung and in the experiment with XF 498 CNS was above 100 µM throughout.

In the case of `Cn1c(CCC#N)nc2ccc(Br)cc2c1=O`, the TGI in the experiment on DMS 114 small cell lung, in the experiment on LXFL 529 NSCLC, in the experiment on KM20L2 colon, with RXF-631 renal and in the experiment on XF 498 CNS was above 100 µM in each case.

In the case of `CN(C)CCn1c2ccccc2c2nc3cc4ccccc4cc3nc21`, the TGI in the experiment on DMS 114 small cell lung is 20.7 µM; in the experiment with LXFL 529 NSCLC, 17.9 µM; with M19-MEL melanoma it was 21 µM; with KM20L2 colon, 15.6 µM; in the experiment on DMS 273 small cell lung, 14.6 µM; in the experiment on XF 498 CNS, 21.4 µM.

For `CCOC(=O)CC1(O)C=CC(=O)C=C1`, in the experiment with MDA-N, the GI50 is 2.83 µg/mL and the TGI was determined as 7.25 µg/mL.

For the molecule `CCc1c2c(nc3cc4c(cc13)OCO4)-c1cc3c(c(=O)n1C2)COC(=O)[C@@]3(CC)OC(=O)CN`, in the experiment with MDA-N, the GI50 was below 0.01 µM and the TGI is 2.18 µM.

Regarding `O=C(CCC(=O)Nc1ccc(Cl)cc1)CC(=O)c1ccc(F)cc1`, the TGI in the experiment on LXFL 529 NSCLC, in the experiment on KM20L2 colon, in the experiment with DMS 273 small cell lung and with XF 498 CNS was above 100 µM throughout.

Regarding `O=C(O)C1C2CC3C(OC(=O)C31)C2Br` (stereo not given), the TGI in the experiment on MDA-N is above 100 µM.

As for `O=c1[nH]c(Br)nc2c(Br)c[nH]c12`, the TGI in the experiment with DMS 114 small cell lung, in the experiment with LXFL 529 NSCLC, in the experiment on HOP-18 NSCLC, with M19-MEL melanoma, in the experiment on KM20L2 colon and in the experiment with DMS 273 small cell lung was above 100 µM in each case. Further, the TGI with RXF-631 renal and in the experiment with XF 498 CNS was above 100 µM throughout.

As for `COc1cc(OC)c2c(=O)c(O)c(-c3ccc(OC)c(OC)c3)oc2c1`, the TGI in the experiment with MDA-N is above 100 µM.

On to `Cc1ccc(C)c(NC(=O)c2cc(-c3ccc([N+](=O)[O-])cc3)nc(N)n2)c1`, for which the TGI with DMS 114 small cell lung, in the experiment with LXFL 529 NSCLC, with HOP-18 NSCLC, with M19-MEL melanoma, in the experiment on KM20L2 colon and in the experiment with DMS 273 small cell lung was above 100 µM each time. This molecule also displayed a TGI in the experiment on XF 498 CNS above 100 µM.

With `Cc1ccc(NC(=O)/C(CC(=O)c2c[n+](=O)c3ccccc3n2O)=N\NC(=O)C[n+]2ccccc2)cc1`, the TGI in the experiment with DMS 114 small cell lung, in the experiment on LXFL 529 NSCLC, with HOP-18 NSCLC, with M19-MEL melanoma, in the experiment on KM20L2 colon and with DMS 273 small cell lung was above 100 µM each time. Moreover, the TGI in the experiment with RXF-631 renal and in the experiment on XF 498 CNS was above 100 µM in each case.

With `O=c1/c(=C/c2ccc(Cl)cc2Cl)sc2nc3ccccc3n12`, the TGI in the experiment on DMS 114 small cell lung, in the experiment on LXFL 529 NSCLC, in the experiment on HOP-18 NSCLC, in the experiment with M19-MEL melanoma, in the experiment with KM20L2 colon and with DMS 273 small cell lung was above 100 µM in each case. For the same molecule, the TGI in the experiment on RXF-631 renal and with XF 498 CNS was above 100 µM each time.

In the case of `C=C1CC(CCCl)(c2ccccc2)OC1=O` (stereo not given), the TGI was above 63.2 µM in the experiment on DMS 114 small cell lung; 45.4 µM in the experiment with LXFL 529 NSCLC; above 59.3 µM in the experiment with HOP-18 NSCLC; above 54.9 µM in the experiment on M19-MEL melanoma; above 100 µM in the experiment with KM20L2 colon; above 100 µM in the experiment on DMS 273 small cell lung. The results for the TGI with RXF-631 renal and in the experiment on XF 498 CNS were above 62.8 µM and above 100 µM, respectively.

Molecule `CC(=O)O[C@@H]1CO[C@H]2O[C@H]3[C@@H](C(C=O)=C[C@H](O)[C@@H]4C5=C(C(C)C)CC[C@]5(C)CC[C@@]34C)[C@@]2(O)C1=O` returned a TGI with MDA-N of 0.415 µM.

For `CCCCCCCCCCCCCCCC(=O)OCC(O)C1OC(=O)C(O)=C1O` (stereo not given), in the experiment on MDA-N, the TGI came out at 94.6 µM.

For the molecule `Nc1ccc2c(c1)C(=O)c1c(F)cccc1-2`, in the experiment on MDA-N, the TGI is above 100 µM.

Regarding `CC(C)C(=O)N[C@@H](C)C(=O)N(Cc1ccc2ccccc2c1)N=O`, the TGI was above 100 µM in the experiment with DMS 114 small cell lung; above 100 µM in the experiment on LXFL 529 NSCLC; 0.0979 µM in the experiment with HOP-18 NSCLC; above 100 µM in the experiment on M19-MEL melanoma; above 100 µM in the experiment with KM20L2 colon; above 100 µM in the experiment on DMS 273 small cell lung. Moreover, the TGI in the experiment on XF 498 CNS was above 100 µM.

For the molecule `COC(=O)c1ccccc1NC(=O)/C(=N\NC(C)(C)C)C(C#N)c1nc(-c2ccc([N+](=O)[O-])cc2)cs1` (stereo not given), the TGI with MDA-N was above 100 µM.

Consider `CC(C)=CCc1c(O)cc(/C=C/c2cc(O)c3c(c2)C[C@@H]2C(C)(C)[C@H](O)[C@H](O)C[C@@]2(C)O3)cc1O`, for which, in the experiment with MDA-N, the GI50 is 1.27 µM and the TGI was above 10 µM.

Regarding `O=Cc1ccc(-c2ccc(-c3ccc(C=O)s3)o2)s1`, the TGI is above 100 µM with DMS 114 small cell lung; 0.324 µM in the experiment on LXFL 529 NSCLC; above 100 µM in the experiment with HOP-18 NSCLC; above 100 µM in the experiment on MDA-N; above 100 µM in the experiment on M19-MEL melanoma; above 100 µM with KM20L2 colon. In the experiment with DMS 273 small cell lung, this molecule returned a TGI above 100 µM.
